The values below come from US10934258B2, “Materials for use in an aqueous organic redox flow battery” (Utah State University, priority 2016, dated 2021).

Data set [1] is described as follows: Cyclic and square wave voltammetry (redox potentials). The format is physicochemical. Particulars: 4 mM in 0.5 M NaCl. The procedure: Electrochemical Cyclic voltammetry (CV) studies. All electrochemical CV experiments were carried out in 0.5 M NaCl electrolyte solutions. Cyclic voltammetry experiments were performed with a Gamry 1000E potentiostat. All potentials were referenced to NHE according to the known MV^2+/1+ redox couple (−0.45 V vs NHE). The working electrode (1 mm PEEK-encased glassy carbon, Cypress Systems EE040) was polished using Al2O3(BAS CF-1050, dried at 150° C. under vacuum) suspended in deionized H2O, then rinsed with deionized H2O and dried with an air flow. The reference electrode was a silver wire coated with a layer of AgCl and suspended in a solution of 0.5 M NaCl electrolyte. A glassy carbon rod (Structure Probe, Inc.) was used as the counter electrode.
Cyclic and square wave voltammetry studies: All experiments were conducted in an […], 0.5 M NaCl aqueous solution, and performed with a Gamry 1000E potentiostat. A 1 mm PEEK encased glassy carbon disk was used as the working electrode. The working electrode was polished with 0.05 micron Al2O3 powder and rinsed with deionized H2O. A glassy carbon rod was used as the counter electrode. A silver wire coated with AgCl and suspended in 3.0 M KCl electrolyte was used as the reference electrode.
The redox potentials were calculated directly versus MV which was derived from the Born-Haber method. This calculation predicts the redox potential of the viologen by comparing it to the experimentally determined potentials for MV. Square wave voltammetry was employed to most accurately measure E1/2 for the two reductions of viologen compounds (FIG. 42). The calculation of the theoretical redox potential vs MV can be simplified as shown below: […]

Data set [2] in a line: RDE linear sweep voltammetry with Levich and Tafel analysis. The settings on record: 1.0 mM in 0.5 M NaCl. Format: physicochemical. The procedure: Electrochemical RDE studies: All linear sweep voltammetry (LSV) studies were conducted using a Gamry 1000E potentiostat in a three-electrode configuration, a glassy carbon disk working electrode (5 mm Teflon encased glassy carbon disk, Pine Research Instrumentation) along with a glassy carbon counter electrode and a Ag/AgCl reference electrode same as used in CV studies. Before data collection, the disk electrode was prepared using the procedure described in the CV studies. The electrode was then rotated at from 300 to 2400 rpm with an increment of 300 rpm, which was controlled by a Pine MSR rotator system. LSV scans were recorded at a rate of 5 mV/s from 0.3 V to 0.8 V vs NHE. At each rotation rate, the LSV were recorded 3 times to ensure repeatability. The limiting currents (i.e. the mass transport-limited current intensity) were taken at 0.7 V vs NHE for FcNCl and plotted over the square root of the rotation rate (rad/s). The data were fitted to yield a straight Levich plot, with the slope defined by the Levich equation (equation 1 below), where n=1 for one electron process, Faraday's constant F=96485 C/mol, electrode area A=0.1935 cm^2, FcNCl concentration Co=1.0 mM, D is diffusion coefficient, kinematic viscosity n=0.009 cm^2/s for 0.5 M NaCl solution. The calculations yielded the diffusion coefficients of FcNCl as 3.25×10^−6 cm^2/s. A plot of overpotential versus log10(iK) was constructed for the LSV data collected at […] for FcNCl where iK is the kinetic current for the oxidation of FcNCl. […] Levich plot slope=0.620nFACOD^2/3v^−1/6 (equation 1) i0=FACOk0 (equation 2)
Electrochemical RDE studies: Linear sweep voltammetry (LSV) experiments were conducted using a Gamry 1000E potentiostat with a three-electrode system. A 5 mm rotating glassy carbon disk encased in Teflon served as the working electrode. A glassy carbon rod was used as the counter electrode. A Ag/AgCl wire served as the reference electrode. The working electrode was cleaned using the same method as in the CV experiments. During the experiments, the working electrode rotated from 300 rpm to 2400 rpm at increments of 300 rpm. Three scans at each rotation rate were collected to ensure accuracy. (NPr)2V: LSV scans were conducted at a rate of 5 mV/s from 0.1 V to −1.2 V versus NHE. The limiting currents (mass transport-limited current intensity) at each rotation rate were recorded at −0.57 V and −0.95 V versus NHE. […] The slopes of these fitted lines are defined by the Levich equation, Levich Plot Slope=0.620nFAC0D^2/3v^−1/6 (equation 1)
[…] Plots of overpotential versus log10(ik) were constructed from the 2400 rpm LSV, where ik is the kinetic current of each reduction of (NPr)2V. The x-intercept of the fitted Tafel plot represents the log of the exchange current i0 that is defined by: i0=FAC0k^0 (equation 2)
where F, A, and C0 are defined above, and k^0 represents the electron transfer rate constant.
(NPr)(SPr)V, (Me)(NPr)V, (SPr)2V, and [FcN^Et]Br: LSV scans were collected and analyzed using the same techniques described for (NPr)2V.

A short description of data set [3]: Solubility by preparing a super-saturated solution. The procedure:
Chemicals and Materials. All chemicals were purchased from Aldrich or TCI, stored in an Argon glovebox, and used directly. Solubility of substituted ferrocene compounds was measured in water by preparing a super-saturated solution in a volumetric cylinder. Deionized water was purged overnight using N2 before use. All experimental operations were conducted under a N2 atmosphere. Conductivity of the electrolyte solutions was measured using a Mettler Toledo conductivity meter at R.T. NMR studies were conducted using a Bruker 500 MHz NMR spectrometer. UV-Vis was collected using an Ocean Optic spectrometer. Elemental analysis was done at Atlantic Microlab.
Calculation of theoretical energy density: The theoretical energy density of the FcNCl/MV AORFB was calculated using equation 3 below, where n is the number of electrons involved into the cell reaction, C is the concentration of active materials, F is Faraday constant, 26.8 Ah/mol, V is the cell voltage, and 2 represents a factor considering both volumes of anolyte and catholyte. Solubility of FcNCl and MV was measured in water respectively by preparing a super-saturated solution. Similar solubility tests in water were applied for ferrocenecarboxylic acid, 1-1′-ferrocenedicarboxilic acid, ferrocenecarboxylic acid, and 1,1′-ferrocenedimethanol. Energy density (Wh/L)=nCFV/2 (equation 3)

For data set [4] the following is noted: known value, potential reference; cited from earlier work.

Turning to `C[n+]1ccc(-c2cc[n+](C)cc2)cc1` [MV, methyl viologen, reference compound], in data set [1] (first redox couple), the “Exp. E1/2, first reduction” value was −0.45 V vs. NHE. Besides, the “Exp. E1/2, second reduction” value in data set [1] (second redox couple) is −0.76 V vs. NHE. Also, the “diffusion constant, D, first reduction” value in data set [2] (Levich) is recorded as 2.57 × 10^−5 cm^2/s. Besides, the “electron transfer rate constant, k^0, first reduction” value in data set [2] (Tafel) came to 0.00028 cm/s. The “solubility in 2.0 M NaCl solution” value in data set [3] (2.0 M NaCl solution) is listed as “above 2.0 M”. For the same molecule, the “solubility in water, [C]” value in data set [3] (in water) is recorded as 2.5 mol/L. Further, the “MV^2+/1+ redox couple used as reference” value in data set [4] was −0.45 V vs NHE.
